For the data set the following is noted: for aqueous solubility: pH 6.8.

In brackets after ≈: the same amount, converted by molar mass.

As for `CCOc1ncccc1-c1nc(C)cc(NC)n1`, the MDR1-MDCK efflux ratio was determined as 0.672; the intrinsic clearance, human liver microsomes was not above 4.74 mL/min/kg; the intrinsic clearance, rat liver microsomes was 26.1 mL/min/kg; the aqueous solubility stood at 36.4 µg/mL (≈ 149 µM).

For the compound `CC(/C=C/C(=O)NO)=C\[C@@H](C)C(=O)c1ccc(N(C)C)cc1`, the MDR1-MDCK efflux ratio amounted to 5.29; the intrinsic clearance, human liver microsomes stood at 23.3 mL/min/kg; the intrinsic clearance, rat liver microsomes is 152 mL/min/kg; the aqueous solubility turned out to be 22.1 µg/mL (≈ 73.1 µM).

For `Cc1nc(CNC2CCN(C(=O)C3CC3)CC2)cs1`, the MDR1-MDCK efflux ratio was 3.43; the intrinsic clearance, human liver microsomes is not above 4.74 mL/min/kg; the intrinsic clearance, rat liver microsomes is not above 10.7 mL/min/kg; the aqueous solubility came out at 42.6 µg/mL (≈ 152 µM).

Turning to `c1cn2cc(-c3ccc4cn[nH]c4c3)nc(Nc3ccc(N4CCOCC4)cc3)c2n1`, the aqueous solubility is 0.1 µg/mL (≈ 0.243 µM).

As for `Nc1ccc(Oc2ccccc2F)nc1`, the MDR1-MDCK efflux ratio is 0.53; the intrinsic clearance, human liver microsomes is not above 4.74 mL/min/kg; the intrinsic clearance, rat liver microsomes was determined as 26.2 mL/min/kg; the aqueous solubility was 25.6 µg/mL (≈ 125 µM).

Regarding `CO[C@@H]1CC[C@@H](N(C)C(=O)COc2c(C)cccc2C)[C@H]1O`, the MDR1-MDCK efflux ratio is 1.67; the intrinsic clearance, human liver microsomes amounted to 12.1 mL/min/kg; the intrinsic clearance, rat liver microsomes was 162 mL/min/kg.

For `CS(=O)(=O)NCCN1CCc2c(Cl)cc(Cl)cc2C1`, the MDR1-MDCK efflux ratio is 0.707; the intrinsic clearance, human liver microsomes was 14.3 mL/min/kg; the intrinsic clearance, rat liver microsomes was 400 mL/min/kg.

Turning to `CCc1cc(CNC(=O)NC2CCN(CC3CCCCC3)CC2)on1`, the MDR1-MDCK efflux ratio is 26.6; the intrinsic clearance, human liver microsomes is not above 4.74 mL/min/kg; the intrinsic clearance, rat liver microsomes amounted to 80.4 mL/min/kg.

In the case of `Cc1ccc(OCN2CCCCC2=O)nc1`, the MDR1-MDCK efflux ratio is 2.63; the intrinsic clearance, human liver microsomes amounted to 5.26 mL/min/kg; the intrinsic clearance, rat liver microsomes was not above 10.7 mL/min/kg.

As for `CC(C)Cn1cnc2c1c(=O)[nH]c(=O)n2CC(C)C`, the MDR1-MDCK efflux ratio stood at 1.96; the intrinsic clearance, human liver microsomes is not above 4.74 mL/min/kg; the intrinsic clearance, rat liver microsomes was determined as 73.9 mL/min/kg; the aqueous solubility came out at 55.3 µg/mL (≈ 209 µM).

As for `C[C@H]1CN(Cc2c(Cl)cccc2C(F)(F)F)C[C@@]1(CC(=O)O)C(=O)NC1CCN(CC2=CCCCC2)CC1`, the MDR1-MDCK efflux ratio came to 80.8.

As to `Cn1ncc2c(NOCc3ccccc3)ncnc21`, the intrinsic clearance, human liver microsomes is 15.2 mL/min/kg and the intrinsic clearance, rat liver microsomes was found to be 49.6 mL/min/kg.

In turn, `Cc1ccc(C)c(NC(=O)c2cccc(-c3ncon3)c2)c1` returned an intrinsic clearance, human liver microsomes of 41.7 mL/min/kg and an intrinsic clearance, rat liver microsomes of 164 mL/min/kg.

Regarding `CC(COc1ccccc1Cc1ccccc1)N1CCCCC1` (centres undefined), the MDR1-MDCK efflux ratio was 1.3; the intrinsic clearance, human liver microsomes was 12.5 mL/min/kg; the intrinsic clearance, rat liver microsomes was 2880 mL/min/kg.

Consider `O=C(CSc1ccc(F)cc1)N1CCCC1`, for which the MDR1-MDCK efflux ratio is 0.746; the intrinsic clearance, human liver microsomes stood at 9.35 mL/min/kg; the intrinsic clearance, rat liver microsomes came out at 117 mL/min/kg; the aqueous solubility stood at 36.2 µg/mL (≈ 151 µM).

With `CC(C)c1nc2c(n1C)CCN(c1ncnc3ccsc13)C2`, the MDR1-MDCK efflux ratio came to 3.28; the intrinsic clearance, human liver microsomes was 21.7 mL/min/kg; the intrinsic clearance, rat liver microsomes was found to be 567 mL/min/kg; the aqueous solubility worked out at 54.4 µg/mL (≈ 173 µM).

On to `CN(C)C1(CNC(=O)N2CCC=C(c3ccccc3)C2)CCOCC1`, for which the MDR1-MDCK efflux ratio was found to be 35.5; the intrinsic clearance, human liver microsomes worked out at 34.8 mL/min/kg; the intrinsic clearance, rat liver microsomes is 874 mL/min/kg.

Turning to `O=C(CC1CCNCC1)NCCc1ccccc1F`, the MDR1-MDCK efflux ratio turned out to be 8.79; the intrinsic clearance, human liver microsomes is not above 4.74 mL/min/kg; the intrinsic clearance, rat liver microsomes was 21.9 mL/min/kg; the aqueous solubility came out at 58.5 µg/mL (≈ 221 µM).

Take `CC#CC(=O)N1CC[C@@H](n2c(=O)n(-c3ccc(Oc4ccccc4)cc3)c3c(N)ncnc32)C1`: the MDR1-MDCK efflux ratio was 28.9; the fraction unbound, human plasma was determined as 0.0863; the fraction unbound, rat plasma turned out to be 0.0467; the intrinsic clearance, human liver microsomes was determined as 21.3 mL/min/kg. The compound further had an intrinsic clearance, rat liver microsomes of 187 mL/min/kg and an aqueous solubility of 64.6 µg/mL (≈ 142 µM).

As to `CCc1ccccc1-c1cn(CCc2cnccn2)nn1`, the MDR1-MDCK efflux ratio was found to be 0.783; the intrinsic clearance, human liver microsomes was 24.7 mL/min/kg; the intrinsic clearance, rat liver microsomes was found to be 290 mL/min/kg; the aqueous solubility worked out at 27.6 µg/mL (≈ 99 µM).

Take `O=C(Nc1ccc2c(c1)OCCCO2)c1cnn(Cc2ccccc2)c1`: the MDR1-MDCK efflux ratio was 0.64; the intrinsic clearance, human liver microsomes is 6.05 mL/min/kg; the intrinsic clearance, rat liver microsomes was determined as 492 mL/min/kg; the aqueous solubility turned out to be 16.5 µg/mL (≈ 47.2 µM).

`Cc1ccc(OCc2noc(-c3ccsc3)n2)cn1`: the MDR1-MDCK efflux ratio was found to be 0.524; the intrinsic clearance, human liver microsomes is 56.1 mL/min/kg; the intrinsic clearance, rat liver microsomes worked out at 204 mL/min/kg; the aqueous solubility worked out at 52.7 µg/mL (≈ 193 µM).

Turning to `O=C(NC1=NS(=O)(=O)c2ccccc21)c1cc(-c2ccc(F)cc2)no1`, the MDR1-MDCK efflux ratio is 2.56; the intrinsic clearance, human liver microsomes turned out to be 90.3 mL/min/kg; the intrinsic clearance, rat liver microsomes was not above 10.7 mL/min/kg; the aqueous solubility was 31.8 µg/mL (≈ 85.5 µM).

As to `O=C(CSC1CCCC1)N1CCC(Cn2cccn2)CC1`, the MDR1-MDCK efflux ratio amounted to 1.6; the intrinsic clearance, human liver microsomes came out at 74.6 mL/min/kg; the intrinsic clearance, rat liver microsomes is 747 mL/min/kg; the aqueous solubility is 63.3 µg/mL (≈ 206 µM).

Take `Cn1ncc2cc(-c3ccnc4[nH]ccc34)ccc21`: the MDR1-MDCK efflux ratio was found to be 0.608; the intrinsic clearance, human liver microsomes turned out to be 117 mL/min/kg; the intrinsic clearance, rat liver microsomes came to 689 mL/min/kg; the aqueous solubility worked out at 4.67 µg/mL (≈ 18.8 µM).

Turning to `c1ccc(-c2nsc(N3CCCN(c4nccs4)CC3)n2)cc1`, the MDR1-MDCK efflux ratio was 0.656; the intrinsic clearance, human liver microsomes amounted to 145 mL/min/kg; the intrinsic clearance, rat liver microsomes amounted to 1470 mL/min/kg; the aqueous solubility worked out at 29.6 µg/mL (≈ 86.2 µM).

For the compound `CC(C)c1nnc(CN(C(C)C)C2CCOCC2)o1`, the MDR1-MDCK efflux ratio came to 0.93; the intrinsic clearance, human liver microsomes amounted to 6.75 mL/min/kg; the intrinsic clearance, rat liver microsomes worked out at 220 mL/min/kg.

As for `Cc1ccc(Cn2ccn(-c3ccc(F)c(F)c3)c(=O)c2=O)cc1`, the MDR1-MDCK efflux ratio is 0.671 and the aqueous solubility turned out to be 0.35 µg/mL (≈ 1.07 µM).

On to `CCc1nnc(NC(=O)Cc2cccc(F)c2)s1`, for which the MDR1-MDCK efflux ratio was 0.912; the intrinsic clearance, human liver microsomes was 7.42 mL/min/kg; the intrinsic clearance, rat liver microsomes stood at 76.3 mL/min/kg; the aqueous solubility was 12.2 µg/mL (≈ 46 µM).

For the compound `Cc1ccc(CCNC(=O)c2ccncc2)o1`, the MDR1-MDCK efflux ratio was 0.705; the intrinsic clearance, human liver microsomes is not above 4.74 mL/min/kg; the intrinsic clearance, rat liver microsomes is 52.3 mL/min/kg; the aqueous solubility came to 29.3 µg/mL (≈ 127 µM).

For the compound `Cc1nnc(N2CC[C@H](O)C2)c(C#N)c1C`, the MDR1-MDCK efflux ratio was determined as 1.3; the intrinsic clearance, human liver microsomes is not above 4.74 mL/min/kg; the intrinsic clearance, rat liver microsomes was not above 10.7 mL/min/kg; the aqueous solubility amounted to 31.2 µg/mL (≈ 143 µM).

Consider `O=C(NC12CCCC1NCC2)c1ccc(-c2cn[nH]c2)cc1` (centres undefined), for which the MDR1-MDCK efflux ratio came to 2.29; the fraction unbound, human plasma turned out to be 1; the intrinsic clearance, human liver microsomes is not above 4.74 mL/min/kg.

As for `COc1cc2cc3c(nc2cc1OC)OCCN(C1CCCCC1)C3`, the MDR1-MDCK efflux ratio was 1.3; the intrinsic clearance, human liver microsomes came to 33.2 mL/min/kg; the intrinsic clearance, rat liver microsomes was 1680 mL/min/kg.

For `Cn1ccc(NC(=O)[C@H]2CCCCN2C(=O)OC(C)(C)C)n1`, the MDR1-MDCK efflux ratio was 2.54; the intrinsic clearance, human liver microsomes is not above 4.74 mL/min/kg; the intrinsic clearance, rat liver microsomes is 154 mL/min/kg; the aqueous solubility came out at 42.4 µg/mL (≈ 137 µM).

`O=c1[nH]c2cc3ccccc3c(=O)n2c2sc3c(c12)CCCC3` yielded an aqueous solubility of 15.2 µg/mL (≈ 47 µM).

With `CC(C)c1nc2c(n1C)CCN(c1ncnc3ccccc13)C2`, the MDR1-MDCK efflux ratio is 4.31; the intrinsic clearance, human liver microsomes was 34.9 mL/min/kg; the intrinsic clearance, rat liver microsomes turned out to be 402 mL/min/kg; the aqueous solubility is 53.5 µg/mL (≈ 174 µM).

`Nc1ccc2c(c1)ncn2CCc1ccccc1`: the MDR1-MDCK efflux ratio was determined as 0.701; the intrinsic clearance, human liver microsomes is not above 4.74 mL/min/kg; the intrinsic clearance, rat liver microsomes was determined as 28.1 mL/min/kg; the aqueous solubility was determined as 38.4 µg/mL (≈ 162 µM).

Turning to `N#Cc1cccc(-c2ccc(=O)n3c2[C@@H]2C[C@@H](CN(Cc4ccc(F)cc4)C2)C3)c1`, the MDR1-MDCK efflux ratio came to 6.11; the intrinsic clearance, human liver microsomes was found to be 218 mL/min/kg; the intrinsic clearance, rat liver microsomes came to 1470 mL/min/kg; the aqueous solubility stood at 32.4 µg/mL (≈ 81.2 µM).

As for `Cc1ccsc1CN(C)C(=O)[C@@H]1CCCN1C(=O)NC(C)C`, the MDR1-MDCK efflux ratio is 23.7; the intrinsic clearance, human liver microsomes stood at 13 mL/min/kg; the intrinsic clearance, rat liver microsomes was 355 mL/min/kg; the aqueous solubility is 42.1 µg/mL (≈ 130 µM).

Turning to `COc1ccc2c(c1)CN(C(=O)c1cc(C3CC3)[nH]n1)CC2`, the MDR1-MDCK efflux ratio turned out to be 1.06; the intrinsic clearance, human liver microsomes was 63.1 mL/min/kg; the intrinsic clearance, rat liver microsomes is 2860 mL/min/kg; the aqueous solubility amounted to 13.6 µg/mL (≈ 45.9 µM).

For `N#Cc1c(N2CCCC2)oc2nc3ccccc3nc12`, the aqueous solubility came to 0.3 µg/mL (≈ 1.14 µM).

As to `COC(=O)CCCNC(=O)CN1CCC(C(=O)c2ccc(C)cc2C)CC1`, the MDR1-MDCK efflux ratio came to 3.29; the intrinsic clearance, human liver microsomes came out at 645 mL/min/kg; the intrinsic clearance, rat liver microsomes turned out to be 1910 mL/min/kg.

With `CCc1nnc(Nc2cc(C)nc(C3CN(C(=O)C(C)C)CCO3)c2)s1` (centres undefined), the MDR1-MDCK efflux ratio stood at 40.4; the intrinsic clearance, human liver microsomes is 13.7 mL/min/kg; the intrinsic clearance, rat liver microsomes came out at 131 mL/min/kg.

In the case of `O=C(CCN1CCN(C(=O)OCc2cc(Cl)cc(Cl)c2)CC1)c1ccc2[nH]c(=O)oc2c1`, the intrinsic clearance, human liver microsomes was found to be 147 mL/min/kg; the intrinsic clearance, rat liver microsomes is 513 mL/min/kg; the aqueous solubility was determined as 4.4 µg/mL (≈ 9.2 µM).

As to `COc1cc(C)nc(N2CCN(c3ccc4ccccc4n3)CC2)n1`, the intrinsic clearance, human liver microsomes came out at 36.2 mL/min/kg and the intrinsic clearance, rat liver microsomes was 643 mL/min/kg.

Consider `Nc1nc2ccccc2nc1N1CCCC1`, for which the MDR1-MDCK efflux ratio was 0.533; the intrinsic clearance, human liver microsomes was 232 mL/min/kg; the intrinsic clearance, rat liver microsomes was 337 mL/min/kg; the aqueous solubility came out at 29.9 µg/mL (≈ 139 µM).

As usually defined, the aqueous solubility is how much of the substance goes into solution per volume. A lower aqueous solubility goes with little dissolved substance.

These data come from the Biogen ADME set (Fang et al. 2023).
